# From paper PMC6207720, “Identification and antitumor activity of a novel inhibitor of the NIMA-related kinase NEK6” (Scientific Reports, 2018)
# Assays:
# Type in all cases: biochemical
# NEK1 = target: T1, NEK1 (Homo sapiens, UniProt Q96PY6); assay: Off-chip Mobility Shift Assay (MSA) profiling, NEK1; conditions: ATP approximating Km
# T1 sequence (Q96PY6 1-1258): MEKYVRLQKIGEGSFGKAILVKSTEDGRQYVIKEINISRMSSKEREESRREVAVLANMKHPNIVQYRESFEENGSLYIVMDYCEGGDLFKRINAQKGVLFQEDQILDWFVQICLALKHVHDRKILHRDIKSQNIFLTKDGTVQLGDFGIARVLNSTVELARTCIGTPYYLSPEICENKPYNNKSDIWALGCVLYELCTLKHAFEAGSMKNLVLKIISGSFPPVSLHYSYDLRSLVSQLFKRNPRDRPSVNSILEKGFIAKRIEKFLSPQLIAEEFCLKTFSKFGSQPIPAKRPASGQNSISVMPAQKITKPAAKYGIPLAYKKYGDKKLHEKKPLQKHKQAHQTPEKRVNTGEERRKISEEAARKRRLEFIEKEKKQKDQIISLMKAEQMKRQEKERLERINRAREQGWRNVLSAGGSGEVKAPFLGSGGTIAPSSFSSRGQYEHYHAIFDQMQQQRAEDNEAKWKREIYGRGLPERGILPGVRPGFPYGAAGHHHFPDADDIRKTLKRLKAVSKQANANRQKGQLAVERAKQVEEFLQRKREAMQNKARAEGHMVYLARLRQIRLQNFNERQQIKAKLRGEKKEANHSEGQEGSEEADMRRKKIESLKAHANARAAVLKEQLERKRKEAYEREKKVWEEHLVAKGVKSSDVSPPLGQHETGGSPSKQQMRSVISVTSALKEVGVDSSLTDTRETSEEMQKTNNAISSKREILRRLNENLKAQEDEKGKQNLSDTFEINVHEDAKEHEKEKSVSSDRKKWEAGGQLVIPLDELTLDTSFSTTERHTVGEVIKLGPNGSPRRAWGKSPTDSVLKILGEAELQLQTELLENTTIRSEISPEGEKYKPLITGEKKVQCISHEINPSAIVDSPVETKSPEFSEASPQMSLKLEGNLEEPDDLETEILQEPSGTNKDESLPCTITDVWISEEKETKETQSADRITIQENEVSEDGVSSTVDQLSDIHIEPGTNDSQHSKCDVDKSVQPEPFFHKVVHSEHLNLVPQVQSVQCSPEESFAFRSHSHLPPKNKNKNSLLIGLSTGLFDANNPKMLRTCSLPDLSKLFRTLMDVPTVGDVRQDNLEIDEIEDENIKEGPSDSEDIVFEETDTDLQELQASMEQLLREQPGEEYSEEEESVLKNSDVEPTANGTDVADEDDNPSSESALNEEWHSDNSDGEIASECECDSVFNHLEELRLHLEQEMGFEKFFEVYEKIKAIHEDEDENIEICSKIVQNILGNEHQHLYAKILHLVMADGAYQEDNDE
# Protocol: (§1) Therefore, we decided to evaluate the selectivity of compound 8 against a panel of NEK kinases at 10 µM, using the technique of Off-chip Mobility shift assay. This concentration was chosen according to the guidelines proposed by Knight and Shokat, since the probability of off-target effects increases dramatically above 10 µM[36]. Furthermore, ATP concentration was set to approximate the Km,ATP for each kinase, so that the resulting selectivity profile directly reflects the intrinsic affinities of the inhibitor[37]. […] A major consequence of this substitution may be the redistribution of surface charges at the flexible activation loop resulting in an altered electrostatic potential and ability of NEK6 kinase to interact with other molecules.
# (§2) The inhibitory activity of compounds 8 and 21 on NEK6 was also verified with MSA technique (Off-chip Mobility shift assay) (CARNA Biosciences Study ID: CBS170097, CARNA Biosciences, Kobe). […] PKR Inhibitor was used as positive control. For profiling study against NEK kinases (i.e. NEK1, NEK2, NEK6, NEK7, NEK9) (CARNA Biosciences Study ID: CBS170098), 8 was tested at 10 μM and ATP concentration approximating Km for each kinase. Assay condition for kinases are available on “Kinase profiling book” downloading by www.carnabio.com (https://www.carnabio.com/output/pdf/ProfilingProfilingBook_en.pdf).
# NEK9 = target: T2, NEK9 (Homo sapiens, UniProt Q8TD19); assay: Off-chip Mobility Shift Assay (MSA) profiling, NEK9; conditions: ATP approximating Km
# T2 sequence (Q8TD19 1-979): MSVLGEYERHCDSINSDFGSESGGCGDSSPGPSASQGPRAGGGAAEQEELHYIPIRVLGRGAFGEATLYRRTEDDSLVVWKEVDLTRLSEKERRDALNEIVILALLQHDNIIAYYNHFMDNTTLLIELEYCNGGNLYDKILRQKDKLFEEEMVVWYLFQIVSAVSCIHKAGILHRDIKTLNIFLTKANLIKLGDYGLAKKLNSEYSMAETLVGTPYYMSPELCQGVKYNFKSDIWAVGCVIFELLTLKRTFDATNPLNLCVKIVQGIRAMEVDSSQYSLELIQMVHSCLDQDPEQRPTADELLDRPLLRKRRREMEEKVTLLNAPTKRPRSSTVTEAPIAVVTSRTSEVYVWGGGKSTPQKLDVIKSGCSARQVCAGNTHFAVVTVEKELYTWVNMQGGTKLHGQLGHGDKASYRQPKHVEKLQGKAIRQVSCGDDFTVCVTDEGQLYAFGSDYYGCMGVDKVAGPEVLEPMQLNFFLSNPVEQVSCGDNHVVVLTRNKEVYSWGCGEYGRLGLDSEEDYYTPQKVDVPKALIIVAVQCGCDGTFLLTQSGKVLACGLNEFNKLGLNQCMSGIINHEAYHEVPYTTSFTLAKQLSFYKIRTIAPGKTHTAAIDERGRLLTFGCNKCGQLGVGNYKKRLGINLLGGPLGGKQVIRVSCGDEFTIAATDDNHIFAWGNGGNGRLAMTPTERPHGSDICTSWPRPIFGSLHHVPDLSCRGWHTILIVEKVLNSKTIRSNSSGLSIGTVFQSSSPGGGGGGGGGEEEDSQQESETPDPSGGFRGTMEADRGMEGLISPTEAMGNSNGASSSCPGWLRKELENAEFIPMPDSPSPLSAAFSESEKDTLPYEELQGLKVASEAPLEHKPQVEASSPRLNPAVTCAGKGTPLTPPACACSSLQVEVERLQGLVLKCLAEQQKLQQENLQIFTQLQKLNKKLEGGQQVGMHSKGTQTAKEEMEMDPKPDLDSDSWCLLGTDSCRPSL
# Protocol: as §1, §2
# NEK6 = target: T3, NEK6 (Homo sapiens, UniProt Q9HC98); assay: Off-chip Mobility Shift Assay (MSA), NEK6
# T3 construct: purchased Carna 05-130
# T3 sequence (Q9HC98 whole entry): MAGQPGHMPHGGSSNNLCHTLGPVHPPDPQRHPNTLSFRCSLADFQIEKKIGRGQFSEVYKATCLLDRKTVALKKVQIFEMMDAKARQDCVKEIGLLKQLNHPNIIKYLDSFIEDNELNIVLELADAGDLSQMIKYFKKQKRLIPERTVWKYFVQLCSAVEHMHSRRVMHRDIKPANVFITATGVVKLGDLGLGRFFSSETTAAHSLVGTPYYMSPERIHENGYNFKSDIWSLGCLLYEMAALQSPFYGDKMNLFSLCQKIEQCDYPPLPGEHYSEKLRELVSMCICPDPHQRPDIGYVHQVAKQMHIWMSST
# Protocol: as §1, §2
smiles,measurement,setting,value
"CC1=C(C#N)C(O)=NC(=O)/C1=C\c1ccc(-c2ccccc2)o1 [Compound 8, (5Z)-2-hydroxy-4-methyl-6-oxo-5-[(5-phenylfuran-2-yl)methylidene]-5,6-dihydropyridine-3-carbonitrile]",inhibition at 10 µM,NEK1,47%
same,inhibition at 10 µM,NEK9,3.1%
same,inhibition at 10 µM,"NEK6; 10 µM, ATP approximating Km",42.5%
same,IC50,"NEK6; CARNA Biosciences Study CBS170097, ATP 75 µM",13.8 µM
